{
  "source": "paper PMC9307173",
  "about": "“OX2R-selective orexin agonism is sufficient to ameliorate cataplexy and sleep/wake fragmentation without inducing drug-seeking behavior in mouse model of narcolepsy” (PLoS ONE, 2022)",
  "origin": "cited, not measured here",
  "key": {"addiction-like behaviors": {"test_system": "addiction-like behaviors", "conditions": "OX1R-selective antagonist", "from_the_text": "Orexin also activates the reward system. Orexin neurons in the LH project to the dopaminergic reward system in the ventral tegmental area (VTA), and promote the dopamine release in the nucleus accumbens and the prefrontal cortex, potentially inducing addiction-like behaviors and reinforcing effects. Orexin-mediated neural signaling also contributes to the development of addiction to drugs of abuse such as cocaine, morphine and nicotine. Anatomically, both OX1R and OX2R are present in VTA, with dopaminergic neurons predominantly expressing OX1R ..."}, "[1]": {"test_system": "orexin knockout and orexin neuron-ablated mice", "parameters": "method as in PMID 28507129"}},
  "note": "Entries after “also recorded” stand apart in the source; their conditions may differ.",
  "data": [
    {"compound": "Cc1nc2ccc(NC(=O)Nc3ccnc4cccnc34)cc2o1", "note": "[SB334867]", "values": [
      {"measurement": "addiction-like behaviors induced by drugs of abuse or OXA (in words)", "setting": "addiction-like behaviors", "value": "inhibited"}
    ]},
    {"compound": "COc1ccc(-c2cccc(C(=O)N(C)C)c2)cc1S(=O)(=O)Nc1cccc(NCCNC(=O)c2ccccc2N(C)C)c1", "note": "[YNT-185]", "values": [
      {"measurement": "wakefulness promotion (in words)", "setting": "[1]; mouse models of narcolepsy", "value": "promotes wakefulness"},
      {"measurement": "cataplexy-like episodes (in words)", "setting": "[1]; mouse models of narcolepsy / OXKO mice", "value": "effectively suppressed cataplexy-like episodes; also recorded: ameliorates cataplexy-like episodes"},
      {"measurement": "wake fragmentation (in words)", "setting": "[1]; narcoleptic model mice / OXKO mice", "value": "did not appreciably ameliorate the wake fragmentation; also recorded: did not sufficiently suppress the active-phase fragmentation of wakefulness"}
    ]}
  ]
}
